From patent publication US20230058733A1, “OGA INHIBITOR COMPOUNDS” (JANSSEN PHARMACEUTICA NV, priority 2019, published 2023)

Assays:
[1] = molecular target: T1, recombinant human Meningioma Expressed Antigen 5 (MGEA5), also referred to as O-GlcNAcase (OGA) (Homo sapiens, UniProt O60502); assay: OGA biochemical assay (inhibition of FM-GlcNAc hydrolysis, fluorescence); conditions: full length OGA 2 nM, FM-GlcNAc 100 uM; for IC50: pH 7.2, 6 h at room temperature, read-out: Enzymatic hOGA, pIC50 (converted); for Emax: relative to high and low controls, read-out: Enzymatic Emax (%)
T1 construct: Full length OGA enzyme was purchased at OriGene (cat #TP322411); purchased OriGene TP322411
T1 sequence (O60502 1-916): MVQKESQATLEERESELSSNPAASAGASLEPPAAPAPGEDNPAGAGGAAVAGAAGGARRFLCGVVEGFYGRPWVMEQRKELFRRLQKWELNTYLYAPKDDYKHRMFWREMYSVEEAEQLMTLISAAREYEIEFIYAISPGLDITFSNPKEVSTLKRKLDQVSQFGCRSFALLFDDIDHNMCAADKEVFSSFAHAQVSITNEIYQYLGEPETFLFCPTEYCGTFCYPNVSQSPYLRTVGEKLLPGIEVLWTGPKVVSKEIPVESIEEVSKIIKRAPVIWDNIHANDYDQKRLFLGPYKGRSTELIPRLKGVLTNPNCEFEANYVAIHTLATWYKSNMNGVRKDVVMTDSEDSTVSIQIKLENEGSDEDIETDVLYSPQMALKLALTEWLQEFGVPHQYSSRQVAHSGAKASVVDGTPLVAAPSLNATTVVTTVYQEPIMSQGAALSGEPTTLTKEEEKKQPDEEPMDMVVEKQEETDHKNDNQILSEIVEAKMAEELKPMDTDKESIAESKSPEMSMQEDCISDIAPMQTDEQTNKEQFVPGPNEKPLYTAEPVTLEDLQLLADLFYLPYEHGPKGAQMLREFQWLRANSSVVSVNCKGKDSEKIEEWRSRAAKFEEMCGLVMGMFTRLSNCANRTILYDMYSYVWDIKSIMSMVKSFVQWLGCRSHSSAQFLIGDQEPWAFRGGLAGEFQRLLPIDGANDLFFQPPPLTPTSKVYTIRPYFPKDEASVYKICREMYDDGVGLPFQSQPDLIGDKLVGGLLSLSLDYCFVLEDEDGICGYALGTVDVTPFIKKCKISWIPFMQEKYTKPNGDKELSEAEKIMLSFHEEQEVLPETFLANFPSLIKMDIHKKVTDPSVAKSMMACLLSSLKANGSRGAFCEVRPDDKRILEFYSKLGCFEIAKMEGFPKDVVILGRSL
Description: The assay is based on the inhibition of the hydrolysis of fluorescein mono-β-D-N-Acetyl-Glucosamine (FM-GlcNAc) (Mariappa et al. 2015, Biochem J 470:255) by the recombinant human Meningioma Expressed Antigen 5 (MGEA5), also referred to as O-GlcNAcase (OGA). The hydrolysis FM-GlcNAc (Marker Gene technologies, cat #M1485) results in the formation of […] and fluorescein. The fluorescence of the latter can be measured at excitation wavelength 485 nm and emission wavelength 538 nm. An increase in enzyme activity results in an increase in fluorescence signal. Full length OGA enzyme was purchased at OriGene (cat #TP322411). The enzyme was stored in 25 mM Tris.HCl, pH 7.3, 100 mM glycine, 10% glycerol at −20° C. Thiamet G and GlcNAcStatin were tested as reference compounds (Yuzwa et al. 2008 Nature Chemical Biology 4:483; Yuzwa et al. 2012 Nature Chemical Biology 8:393). The assay was performed in 200 mM Citrate/phosphate buffer supplemented with 0.005% Tween-20. 35.6 g Na2HPO4 2 H2O (Sigma, #C0759) were dissolved in 1 L water to obtain a 200 mM solution. 19.2 g citric acid (Merck, #1.06580) was dissolved in 1 L water to obtain a 100 mM solution. pH of the sodiumphosphate solution was adjusted with the citric acid solution to 7.2. The buffer to stop the reaction consists of a 500 mM Carbonate buffer, pH 11.0. 734 mg FM-GlcNAc were dissolved in 5.48 mL DMSO to obtain a 250 mM solution and was stored at −20° C. OGA was used at a 2 nM concentration and FM-GlcNAc at a 100 uM final concentration. Dilutions were prepared in assay buffer.
50 nl of a compound dissolved in DMSO was dispensed on Black Proxiplate TM 384 Plus Assay plates (Perkin Elmer, #6008269) and 3 μl fl-OGA enzyme mix added subsequently. Plates were pre-incubated for 60 min at room temperature and then 2 μl FM-GlcNAc substrate mix added. […] Plates were briefly centrifuged for 1 min at 1000 rpm and incubate at room temperature for 6 h. To stop the reaction 5 μl STOP buffer were added and plates centrifuge again 1 min at 1000 rpm. Fluorescence was quantified in the Thermo Scientific Fluoroskan Ascent or the PerkinElmer EnVision with excitation wavelength 485 nm and emission wavelength 538 nm.
For analysis a best-fit curve is fitted by a minimum sum of squares method. From this an IC50 value and Hill coefficient was obtained. High control (no inhibitor) and low control (saturating concentrations of standard inhibitor) were used to define the minimum and maximum values.

[2] = molecular target: T2, hOGA (Homo sapiens, UniProt O60502); assay: OGA cellular assay (ICC detection of O-GlcNAcylated proteins in HEK293 cells inducible for P301L mutant human Tau); format: cell-based; conditions: for EC50: HEK293 cells inducible for P301L mutant human Tau (2N4R), 6 hours incubation, O-GlcNAcylation readout at 488 nm, read-out: Cellular hOGA, pEC50 (converted); for Emax: HEK293 cells inducible for P301L mutant human Tau, maximum defined by Thiamet G at 200 uM
T2 construct: HEK293 cells inducible for P301L mutant human Tau (isoform 2N4R) were established at Janssen; endogenous in cells; host or cells: HEK293 cells inducible for P301L mutant human Tau (2N4R)
T2 sequence (O60502 1-916): T1 sequence (O60502 1-916)
Protocol: HEK293 cells inducible for P301L mutant human Tau (isoform 2N4R) were established at Janssen. Thiamet-G was used for both plate validation (high control) and as reference compound (reference EC50 assay validation). OGA inhibition is evaluated through the immunocytochemical (ICC) detection of O-GlcNAcylated proteins by the use of a monoclonal antibody (CTD110.6; Cell Signaling, #9875) detecting 0-GlcNAcylated residues as previously described (Dorfmueller et al. 2010 Chemistry & biology, 17:1250). Inhibition of OGA will result in an increase of O-GlcNAcylated protein levels resulting in an increased signal in the experiment. Cell nuclei are stained with Hoechst to give a cell culture quality control and a rough estimate of immediate compounds toxicity, if any. ICC pictures are imaged with a Perkin Elmer Opera Phenix plate microscope and quantified with the provided software Perkin Elmer Harmony 4.1.
Cells were propagated in DMEM high Glucose (Sigma, #D5796) following standard procedures. 2 days before the cell assay cells are split, counted and seeded in Poly-D-Lysine (PDL) coated 96-wells (Greiner, #655946) plate at a cell density of 12,000 cells per cm^2 (4,000 cells per well) in 100 μl of Assay Medium (Low Glucose medium is used to reduce basal levels of GlcNAcylation) (Park et al. 2014 The Journal of biological chemistry 289:13519). At the day of compound test medium from assay plates was removed and replenished with 90[d of fresh Assay Medium. 10 μl of compounds at a 10 fold final concentration were added to the wells. Plates were centrifuged shortly before incubation in the cell incubator for 6 hours. DMSO concentration was set to 0.2%. Medium is discarded by applying vacuum. For staining of cells medium was removed and cells washed once with 100 μl D-PBS (Sigma, #D8537). From next step onwards unless other stated assay volume was always 50 μl and incubation was performed without agitation and at room temperature. Cells were fixed in 50 μl of a 4% paraformaldehyde (PFA, Alpha aesar, #043368) PBS solution for 15 minutes at room temperature. […] Before analysis samples were washed 2 times manually for 5 minutes in ICC base buffer.
Imaging is performed using Perkin Elmer Phenix Opera using a water 20× objective and recording 9 fields per well. Intensity readout at 488 nm is used as a measure of O-GlcNAcylation level of total proteins in wells. To assess potential toxicity of compounds nuclei were counted using the Hoechst staining. IC50-values are calculated using parametric non-linear regression model fitting. As a maximum inhibition Thiamet G at a 200 uM concentration is present on each plate. In addition, a concentration response of Thiamet G is calculated on each plate.

Row | SMILES | IC50 [1] | Emax [1] | EC50 [2] | Emax [2]
1 | Cc1cc(C(F)(F)F)cc(C)c1Nc1nncc2c1ccn2CC(=O)N(C)C [Co. No. 1] | 15.1 nM | 101% | 24 nM | 68%
2 | Cc1ccnc(C(C)C)c1Nc1nncc2c1ccn2CC(=O)N(C)C [Co. No. 2] | 21.4 nM | 98% | 138 nM | 138%
3 | Cc1cc(OC(F)(F)F)cc(Cl)c1Nc1nncc2c1ccn2CC(=O)N(C)C [Co. No. 3] | 6.31 nM | 101% | 15.8 nM | 108%
4 | Cc1cc(Cl)cc(C(F)(F)F)c1Nc1nncc2c1ccn2CC(=O)N(C)C [Co. No. 4] | 19.1 nM | 100% | 74.1 nM | 63%
5 | Cc1cc(C)c(Nc2nncc3c2ccn3CC(=O)N(C)C)c(C)c1 [Co. No. 5] | 4.27 nM | 99% | 21.4 nM | 92%
